Here are results for two compounds from ChEMBL document CHEMBL1133145, “Novel photoreactive cinnamic acid analogues to elucidate phenylalanine ammonia-lyase” (Bioorg Med Chem Lett, 2000).

This experiment is described as follows: Inhibitory activity against Phenylalanine Ammonia-lyase (PAL).

Structures are written as SMILES.

Compound `O=C(O)/C=C/c1ccc(C2(C(F)(F)F)N=N2)cc1OCCOCCOCCNC(=O)CCCC[C@@H]1SCC2NC(=O)NC21` (some centres not stated) registered a Ki of 520 µM.
As to `COc1cc(C2(C(F)(F)F)N=N2)ccc1/C=C/C(=O)O`, affinity was put at a Ki of 240 µM.
